Reference: patent publication US20100081693A1, “T[…] AND USE THEREOF” (priority 2006, published 2010)

Columns and labels:
Assay type in all cases: in vivo
tobacco whitefly = experiment: Test Example 3: spray test on tobacco whitefly larvae on cabbage; conditions: 168 h, sprayed on cabbage at 20 ml/cup, hatched larvae, seven days after spraying, read-out: Controlling value (%)
Tetranychus urticae = experiment: Test Example 4: spray test on Tetranychus urticae on vineless common bean; conditions: 192 h, 500 ppm, 20 ml sprayed on common bean plantlet, female imagoes, eight days after spraying, read-out: Controlling rate (%)
Method: Each of present compounds (1) to (3), (5), (17), (39), (55) to (57), (120) to (124), (129), (130), (135), (136), (139) to (141), (232), (236), (243), (255), (262), and the comparative compound (A) was formulated into a preparation according to Preparation Example 5. This preparation was diluted with water so that the concentration of the present compound or the comparative compound (A) became 500 ppm.
Meanwhile, about 60 Tetranychus urticae female imagoes were released on a vineless common bean plantlet (7 days after seeding, first leaf development phase) planted in a plastic cup, which was allowed to stand for 1 day. To this plantlet was sprayed 20 ml of each of the above diluted solutions.
Eight days after spraying, the number of surviving mites on a leaf of the vineless common bean was investigated, and a controlling rate was calculated according to the following equation.
Controlling rate (%)=100×{1−(number of surviving mites of treated group)/(number of surviving mites of non-treated group)}

cotton aphids [1] = experiment: Test Example 2: soil immersion treatment of cucumber, cotton aphids inoculated afterwards; conditions: 144 h, 500 ppm test solution (5 ml + 40 ml water), aphids inoculated after 7 days, counted 6 days later, 25° C., read-out: Controlling value (%)
Method: Into a beer cup were poured 5 ml of the test diluted solution and 40 ml of water, where a cucumber planted in a polyethylene cup and grown to develop a first true leaf was accommodated, and the soil part was subjected to immersion-treatment. The plant was retained in a greenhouse at 25° C. for 7 days, 30 cotton aphids (all stages) were inoculated on a cucumber leaf surface, the plant was further retained in a greenhouse at 25° C. for 6 days, the number of surviving worms of cotton aphids parasitized on the leaf surface was investigated, and a controlling value was calculated according to the following equation.
(§1) Controlling value (%)={1−(Cb×Tai)/(Cai×Tb)}×100
(§2) Cb is the number of worms before treatment of a non-treated group.
(§3) Cai is the number of worms at observation of a non-treated group.
(§4) Tb is the number of worms before treatment of a treated group.
(§5) Tai is the number of worms at observation of a treated group.

cotton aphids [2] = experiment: Test Example 1: spray test on cotton aphids parasitized on cucumber; conditions: 144 h; 500 ppm active ingredient, sprayed on cucumber at 20 ml/cup, six days after spraying; read-out: Controlling value (%)
Method: On the other hand, a cucumber was planted in a polyethylene cup, and grown until a first true leaf was developed, and 30 cotton aphids were parasitized thereon. One day after, the test spray solution was sprayed to the cucumber at a ratio of 20 ml/cup. Six days after spraying, the number of cotton aphids was investigated, and a controlling value was calculated according to the following equation.
as §1, §2, §3, §4, §5

Compound	pest or weed control at 500 ppm (tobacco whitefly) [%]	pest or weed control at 500 ppm (Tetranychus urticae) [%]	pest or weed control at 500 ppm (cotton aphids [1]) [%]	pest or weed control at 500 ppm (cotton aphids [2]) [%]
CCCCOc1nc(SC(=O)N(C)C)ns1 [(5)]	≥ 90	≥ 90	–	–
C#CCOc1nc(SC(=O)N(C)C)ns1 [(7)]	≥ 90	–	–	–
CC#CCOc1nc(SC(=O)N(C)C)ns1 [(8)]	≥ 90	–	–	–
CN(C)C(=O)Sc1nsc(OC2CCOCC2)n1 [(17)]	≥ 90	≥ 90	≥ 90	–
CN(C)C(=O)Sc1nsc(OCCCn2cccn2)n1 [(19)]	–	–	≥ 90	–
CN(C)C(=O)Sc1nsc(OCC(C)(C)C)n1 [(31)]	≥ 90	–	–	–
CN(C)C(=O)Sc1nsc(OCCC(C)(C)C)n1 [(33)]	–	–	–	≥ 90
C=CCCCOc1nc(SC(=O)N(C)C)ns1 [(34)]	≥ 90	–	≥ 90	≥ 90
C#CCC(C)Oc1nc(SC(=O)N(C)C)ns1 (stereo not drawn) [(38)]	≥ 90	–	–	–
C#CC(C)Oc1nc(SC(=O)N(C)C)ns1 (stereo not drawn) [(39)]	≥ 90	≥ 90	–	–
CN(C)C(=O)Sc1nsc(OCCCCl)n1 [(49)]	≥ 90	–	≥ 90	–
CN(C)C(=O)Sc1nsc(OCCCCCl)n1 [(50)]	–	–	≥ 90	–
CN(C)C(=O)Sc1nsc(OCC(C)(C)CCl)n1 [(52)]	≥ 90	–	–	–
CN(C)C(=O)Sc1nsc(OCC(F)(F)C(F)(F)F)n1 [(59)]	≥ 90	–	≥ 90	≥ 90
CC(Oc1nc(SC(=O)N(C)C)ns1)C(F)(F)C(F)(F)F (stereo not drawn) [(61)]	≥ 90	–	≥ 90	≥ 90
CN(C)C(=O)Sc1nsc(OCC(F)(F)C(F)(F)C(F)(F)F)n1 [(62)]	–	–	≥ 90	≥ 90
CCC(Oc1nc(SC(=O)N(C)C)ns1)C(C)(C)C (stereo not drawn) [(64)]	–	–	–	≥ 90
CN(C)C(=O)Sc1nsc(OCCCl)n1 [(67)]	≥ 90	–	–	–
CN(C)C(=O)Sc1nsc(OCc2ccsc2)n1 [(74)]	–	–	–	≥ 90
CN(C)C(=O)Sc1nsc(OCc2cccc(F)c2)n1 [(79)]	–	–	≥ 90	–
CN(C)C(=O)Sc1nsc(OCc2cccc(Cl)c2Cl)n1 [(99)]	–	–	–	≥ 90
CN(C)C(=O)Sc1nsc(OCc2c(Cl)cccc2Cl)n1 [(102)]	–	–	–	≥ 90
CN(C)C(=O)Sc1nsc(OCc2ccc(Cl)c(Cl)c2)n1 [(103)]	–	–	–	≥ 90
CN(C)C(=O)Sc1nsc(OCc2ccc(F)c(C(F)(F)F)c2)n1 [(111)]	≥ 90	–	–	–
